Measured values published in patent publication US20140288074A1, “FUNGICIDAL PYRAZOLES” (E I DU PONT DE NEMOURS AND COMPANY, priority 2013, published 2014).

What was measured:
Septoria nodorum = assay: Test C: preventive spray on wheat seedlings, Septoria glume blotch, visual disease rating; type: in vivo; conditions: 200 ppm test suspension, Septoria nodorum inoculated the day after spraying; for pest or weed control at 200 ppm: Parastagonospora nodorum, 264 h
Experimental: General protocol for preparing test suspensions for Tests A-G: the test compounds were first dissolved in acetone in an amount equal to 3% of the final volume and then suspended at the desired concentration (in ppm) in acetone and purified water (50/50 mix by volume) containing 250 ppm of the surfactant Trem® 014 (polyhydric alcohol esters). The resulting test suspensions were then used in Tests A-G. Each test was conducted in triplicate, and the results were averaged. Spraying a 200 ppm test suspension to the point of run-off on the test plants was the equivalent of a rate of 800 g/ha. Unless otherwise indicated, the rating values indicate a 200 ppm test suspension was used. (An asterisk “*” next to the rating value indicates a 40 ppm test suspension was used.) The test suspension was sprayed to the point of run-off on wheat seedlings. The following day the seedlings were inoculated with a spore suspension of Septoria nodorum (the causal agent of Septoria glume blotch) and incubated in a saturated atmosphere at 24° C. for 48 h, and then moved to a growth chamber at 20° C. for 9 days, after which time visual disease ratings were made. Results for Tests A-G are given in Table A. In the Table, a rating of 100 indicates 100% disease control and a rating of 0 indicates no disease control (relative to the controls). A hyphen (-) indicates no test results.

[1] = test system: Puccinia recondita f. sp. tritici; assay: Test E: spray after inoculation of wheat seedlings, wheat leaf rust, visual disease rating; type: in vivo; conditions: 200 ppm test suspension, sprayed after inoculation with Puccinia recondita f. sp. tritici
Experimental: General protocol for preparing test suspensions for Tests A-G: the test compounds were first dissolved in acetone in an amount equal to 3% of the final volume and then suspended at the desired concentration (in ppm) in acetone and purified water (50/50 mix by volume) containing 250 ppm of the surfactant Trem® 014 (polyhydric alcohol esters). The resulting test suspensions were then used in Tests A-G. Each test was conducted in triplicate, and the results were averaged. Spraying a 200 ppm test suspension to the point of run-off on the test plants was the equivalent of a rate of 800 g/ha. Unless otherwise indicated, the rating values indicate a 200 ppm test suspension was used. (An asterisk “*” next to the rating value indicates a 40 ppm test suspension was used.) Wheat seedlings were inoculated with a spore suspension of Puccinia recondita f. sp. tritici (the causal agent of wheat leaf rust) and incubated in a saturated atmosphere at 20° C. for 24 h, and then moved to a growth chamber at 20° C. for 2 days. At the end of this time the, the test suspension was sprayed to the point of run-off on the wheat seedlings, and then the seedlings were moved back to the growth chamber at 20° C. for 4 days. Upon removal, visual disease ratings were made. Results for Tests A-G are given in Table A. In the Table, a rating of 100 indicates 100% disease control and a rating of 0 indicates no disease control (relative to the controls). A hyphen (-) indicates no test results.

[2] = test system: Puccinia recondita f. sp. tritici; assay: Test F: preventive spray on wheat seedlings, wheat leaf rust, visual disease rating; type: in vivo; conditions: 200 ppm test suspension, Puccinia recondita f. sp. tritici inoculated the day after spraying; for pest or weed control at 200 ppm: 168 h
Experimental: General protocol for preparing test suspensions for Tests A-G: the test compounds were first dissolved in acetone in an amount equal to 3% of the final volume and then suspended at the desired concentration (in ppm) in acetone and purified water (50/50 mix by volume) containing 250 ppm of the surfactant Trem® 014 (polyhydric alcohol esters). The resulting test suspensions were then used in Tests A-G. Each test was conducted in triplicate, and the results were averaged. Spraying a 200 ppm test suspension to the point of run-off on the test plants was the equivalent of a rate of 800 g/ha. Unless otherwise indicated, the rating values indicate a 200 ppm test suspension was used. (An asterisk “*” next to the rating value indicates a 40 ppm test suspension was used.) The test suspension was sprayed to the point of run-off on wheat seedlings. The following day the seedlings were inoculated with a spore suspension of Puccinia recondita f. sp. tritici (the causal agent of wheat leaf rust) and incubated in a saturated atmosphere at 20° C. for 24 h, and then moved to a growth chamber at 20° C. for 6 days, after which time visual disease ratings were made. Results for Tests A-G are given in Table A. In the Table, a rating of 100 indicates 100% disease control and a rating of 0 indicates no disease control (relative to the controls). A hyphen (-) indicates no test results.

Septoria tritici = assay: Test D: preventive spray on wheat seedlings, wheat leaf blotch, visual disease rating; type: in vivo; conditions: 200 ppm test suspension, Septoria tritici inoculated the day after spraying; for pest or weed control at 200 ppm: Zymoseptoria tritici, 504 h
Experimental: General protocol for preparing test suspensions for Tests A-G: the test compounds were first dissolved in acetone in an amount equal to 3% of the final volume and then suspended at the desired concentration (in ppm) in acetone and purified water (50/50 mix by volume) containing 250 ppm of the surfactant Trem® 014 (polyhydric alcohol esters). The resulting test suspensions were then used in Tests A-G. Each test was conducted in triplicate, and the results were averaged. Spraying a 200 ppm test suspension to the point of run-off on the test plants was the equivalent of a rate of 800 g/ha. Unless otherwise indicated, the rating values indicate a 200 ppm test suspension was used. (An asterisk “*” next to the rating value indicates a 40 ppm test suspension was used.) The test suspension was sprayed to the point of run-off on wheat seedlings. The following day the seedlings were inoculated with a spore suspension of Septoria tritici (the causal agent of wheat leaf blotch) and incubated in saturated atmosphere at 24° C. for 48 h. and then the seedlings were moved to a growth chamber at 20° C. for 19 additional days, after which time visual disease ratings were made. Results for Tests A-G are given in Table A. In the Table, a rating of 100 indicates 100% disease control and a rating of 0 indicates no disease control (relative to the controls). A hyphen (-) indicates no test results.

Alternaria solani = assay: Test B: preventive spray on tomato seedlings, tomato early blight, visual disease rating; type: in vivo; conditions: 200 ppm test suspension, Alternaria solani inoculated the day after spraying
Experimental: General protocol for preparing test suspensions for Tests A-G: the test compounds were first dissolved in acetone in an amount equal to 3% of the final volume and then suspended at the desired concentration (in ppm) in acetone and purified water (50/50 mix by volume) containing 250 ppm of the surfactant Trem® 014 (polyhydric alcohol esters). The resulting test suspensions were then used in Tests A-G. Each test was conducted in triplicate, and the results were averaged. Spraying a 200 ppm test suspension to the point of run-off on the test plants was the equivalent of a rate of 800 g/ha. Unless otherwise indicated, the rating values indicate a 200 ppm test suspension was used. (An asterisk “*” next to the rating value indicates a 40 ppm test suspension was used.) The test suspension was sprayed to the point of run-off on tomato seedlings. The following day the seedlings were inoculated with a spore suspension of Alternaria solani (the causal agent of tomato early blight) and incubated in a saturated atmosphere at 27° C. for 48 h, and then moved to a growth chamber at 20° C. for 5 days, after which time visual disease ratings were made. Results for Tests A-G are given in Table A. In the Table, a rating of 100 indicates 100% disease control and a rating of 0 indicates no disease control (relative to the controls). A hyphen (-) indicates no test results.

[3] = test system: Blumeria graminis f. sp. tritici; assay: Test G: preventive spray on wheat seedlings, wheat powdery mildew, visual disease rating;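 as to all read-outs here: rated 8 days after spore dust inoculation at 20 °C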; type: in vivo; conditions: 200 ppm test suspension, Blumeria graminis f. sp. tritici inoculated the day after spraying; for pest or weed control at 200 ppm: 192 h
Experimental: General protocol for preparing test suspensions for Tests A-G: the test compounds were first dissolved in acetone in an amount equal to 3% of the final volume and then suspended at the desired concentration (in ppm) in acetone and purified water (50/50 mix by volume) containing 250 ppm of the surfactant Trem® 014 (polyhydric alcohol esters). The resulting test suspensions were then used in Tests A-G. Each test was conducted in triplicate, and the results were averaged. Spraying a 200 ppm test suspension to the point of run-off on the test plants was the equivalent of a rate of 800 g/ha. Unless otherwise indicated, the rating values indicate a 200 ppm test suspension was used. (An asterisk “*” next to the rating value indicates a 40 ppm test suspension was used.) The test suspension was sprayed to the point of run-off on wheat seedlings. The following day the seedlings were inoculated with a spore dust of Blumeria graminis f. sp. tritici (also known as Erysiphe graminis f. sp. tritici, the causal agent of wheat powdery mildew) and incubated in a growth chamber at 20° C. for 8 days, after which time visual disease ratings were made. Results for Tests A-G are given in Table A. In the Table, a rating of 100 indicates 100% disease control and a rating of 0 indicates no disease control (relative to the controls). A hyphen (-) indicates no test results.

Botrytis cinerea = assay: Test A: preventive spray on tomato seedlings, tomato Botrytis, visual disease rating; type: in vivo; conditions: 200 ppm test suspension, Botrytis cinerea inoculated the day after spraying
Experimental: General protocol for preparing test suspensions for Tests A-G: the test compounds were first dissolved in acetone in an amount equal to 3% of the final volume and then suspended at the desired concentration (in ppm) in acetone and purified water (50/50 mix by volume) containing 250 ppm of the surfactant Trem® 014 (polyhydric alcohol esters). The resulting test suspensions were then used in Tests A-G. Each test was conducted in triplicate, and the results were averaged. Spraying a 200 ppm test suspension to the point of run-off on the test plants was the equivalent of a rate of 800 g/ha. Unless otherwise indicated, the rating values indicate a 200 ppm test suspension was used. (An asterisk “*” next to the rating value indicates a 40 ppm test suspension was used.) The test suspension was sprayed to the point of run-off on tomato seedlings. The following day the seedlings were inoculated with a spore suspension of Botrytis cinerea (the causal agent of tomato Botrytis) and incubated in saturated atmosphere at 20° C. for 48 h, and then moved to a growth chamber at 24° C. for 3 additional days, after which time visual disease ratings were made. Results for Tests A-G are given in Table A. In the Table, a rating of 100 indicates 100% disease control and a rating of 0 indicates no disease control (relative to the controls). A hyphen (-) indicates no test results.

CCC=C(C)C(O)c1c(-c2c(F)cccc2F)c(C)nn1C (stereo not drawn) [Compound 18]
Test C rating (disease control) (Septoria nodorum): 0%
Test E rating (disease control) [1]: 9%
Test F rating (disease control) [2]: 18%
Test D rating (disease control) (Septoria tritici): 24%
Test B rating (disease control) (Alternaria solani): 96%
Test G rating (disease control) [3]: 60%

CC=C(C)C(O)c1c(-c2c(F)cccc2Cl)c(C)nn1C (stereo not drawn) [Compound 17]
Test C rating (disease control) (Septoria nodorum): 0%
Test E rating (disease control) [1]: 9%
Test F rating (disease control) [2]: 74%
Test D rating (disease control) (Septoria tritici): 72%
Test B rating (disease control) (Alternaria solani): 58%
Test G rating (disease control) [3]: 78%

Cc1nn(C)c(NC(C)C)c1-c1ccc(F)cc1F [Compound 1]
Test C rating (disease control) (Septoria nodorum): 0%
Test A rating (disease control) (Botrytis cinerea): 65%
Test F rating (disease control) [2]: 0%
Test D rating (disease control) (Septoria tritici): 0%
Test B rating (disease control) (Alternaria solani): 0%
Test G rating (disease control) [3]: 0%

Cc1nn(C)c(N2CCC(C)CC2)c1-c1ccc(F)cc1Cl [Compound 42, 1-[4-(2-chloro-4-fluorophenyl)-1,3-dimethyl-1H-pyrazol-5-yl]-4-methylpiperidine]
pest or weed control at 200 ppm (Septoria nodorum): 0%
pest or weed control at 200 ppm (Botrytis cinerea; 120 h): 0%
melting point: 98 to 100 °C
pest or weed control at 200 ppm [2]: 72%
pest or weed control at 200 ppm (Septoria tritici): 99%
pest or weed control at 200 ppm [3]: 0%

Cc1nn(C)c(C(O)C2CCCCC2)c1-c1c(F)cccc1Cl (stereo not drawn) [Compound 16, 4-(2-chloro-6-fluorophenyl)-α-cyclohexyl-1,3-dimethyl-1H-pyrazole-5-methanol]
pest or weed control at 200 ppm (Septoria nodorum): 0%
Test E rating (disease control) [1]: 0%
pest or weed control at 200 ppm [2]: 79%
pest or weed control at 200 ppm (Septoria tritici): 100%
Test B rating (disease control) (Alternaria solani): 89%
pest or weed control at 200 ppm [3]: 100%
